# According to patent US20100099762A1, “COMBINATION THERAPY” (THE MENTAL HEALTH RESEARCH INSTITUTE OF VICTORIA, priority 2006, published 2010):
# Marks after values point to notes of the source that are not given here.
# Tested on: schizophrenia
# Assay: Randomised double blind multicentre placebo controlled trial of NAC in combination with an antipsychotic agent in schizophrenia
# Format: in vivo, human
# From the text: There is preclinical evidence of a reduction in antioxidant defences in schizophrenia, particularly a reduction in glutathione, which is a primary endogenous antioxidant defence. N-acetyl cysteine (NAC) is a bioavailable precursor of glutathione. This Example is a randomised double blind multicentre placebo controlled trial of the use of NAC in combination with an antipsychotic agent in the treatment of schizophrenia. A total of 140 individuals were randomised to receive 2 g daily of NAC in two divided doses, or placebo, together with their normal dosage of antipsychotic agent.
# Participants were assigned randomly and consecutively to treatment with NAC or placebo in a double blind fashion. The randomisation log was generated by an independent individual using the traditional coin tossing method. The investigators and clinicians remained blind until data analysis was completed. The person generating the randomisation schedule was not involved in participant interviews, either for participant eligibility or outcome measurements.
# All participants remained on their usual antipsychotic medication for the duration of the trial. The dose of the primary therapy was monitored. Participants were recruited through advertisements, referral by case clinicians and through database screening. All participants provided written informed consent as part of complying with the protocol.
# All randomised participants received two NAC (500 mg) capsules twice daily, to a total dose of 2 g daily, or matching placebo capsules. Human dosing can be up to 5 g/day without adverse effects (Louwerse E. S. et al., 1995). A daily dose that is within the range of efficacy in published clinical trials (Adair J. C. et al., 2001, Van Schooten F. J. et al., 2002, and Behr J, et al., 2002) was selected. Once per day dosing is desirable in the drug treatment of schizophrenia, where medication compliance is known to be a challenge in management. However, steady state plasma levels cannot be achieved with a once daily oral dose of NAC as the plasma half-life is only 2-3 hours (Holdiness M. R., 1991 and Kelly G. S., 1998). While a twice-daily (BID) dosing regimen would also not be expected to achieve steady state plasma levels, dose intervals beyond BID were considered to markedly increase the risk of non-compliance in this population.
# To be included, the patients were required to meet Diagnostic and Statistical Manual of Mental Disorders, fourth edition (DSM-IV) (Association AP, 1994) criteria for schizophrenia and have a PANSS total score of ≧55, or at least two items in the positive and/or negative items being >3, or have a CGI-S≧3. They needed to have the capacity to consent to the study, and be aged between 18 and 65. Both inpatients and outpatients were eligible. Participants needed to be currently taking an antipsychotic agent and to be utilising effective contraception if female and of childbearing age. Exclusion criteria included patients with abnormal renal, hepatic, thyroid or haematological findings, patients with a systemic medical disorder including asthma, allergies or any history of bronchospasm, respiratory insufficiency and recent gastrointestinal ulcers and females who were positive on pregnancy screening testing at baseline. Participants who were taking a mood stabiliser (e.g. lithium, valproate and carbamazepine) were excluded as were those currently taking drugs that are known to prevent GSH depletion (500+mg of NAC/day, 200+ug of selenium/day or 500+IU of Vitamin E/day).
# Withdrawal from the trial occurred if participants ceased taking their trial medication for seven consecutive days, or ceased effective contraception, or became pregnant. A change in primary antipsychotic from one medication to another required participants to be withdrawn from the study. Similarly, the addition of a mood stabiliser required withdrawal of the participant. Dose changes to existing medications were not an exclusion criterion, and this was monitored. […]
# [1] = baseline to week 8, LOCF ANCOVA
# [2] = baseline to week 24, LOCF ANCOVA
# [3] = baseline to week 24, LOCF ANCOVA with treatment by investigator interaction
# [4] = score at week 24, end of treatment
smiles,measurement,setting,value
"CC(=O)N[C@@H](CS)C(=O)O [NAC, N-acetyl cysteine]","Number of patients with clinician-observed improvement (CGI-S), NAC group versus placebo group",16 weeks of treatment,more than two-fold greater
same,Range of CGI-S improvement from baseline in improved subjects,16 weeks of treatment,1-3 points
same,"Effects on safety parameters, including vital signs, weight and clinical biochemistry values",24 weeks NAC 2 g daily,no significant effects
same,"GAF mean overall change from baseline to endpoint, NAC treatment group","ANCOVA, within-group",+4.5 points
same,"PANSS scales, NAC versus placebo over all visits",MMRM,did not detect a significant difference
same,PANSS-Negative items 3 and 6 over all visits,MMRM of individual items,significant (p<0.05) benefit
same,Individual PANSS items at specific visits,"MMRM of individual items, weeks 2, 4, 8, 16, 20, 24",significant (p<0.05) improvements on several items
same,"GAF average improvement over all visits, NAC group","MMRM, within-group",+3.1 points
same,CGI-S: Within NAC Group Week 8 Mean Overall Change (95% CI),"NAC 2 g daily plus usual antipsychotic, baseline to week 8, LOCF ANCOVA","−0.32 (−0.48, −0.15)**"
same,Mean gain in weight at week 24,"NAC group, n=33",0.394 kg
same,Mean weight gain at week 8,"NAC group, n=43",1.372 kg
same,"Functioning as measured by the GAF scale or the SOFAS, between groups",NAC versus placebo,no between-group differences
same,Effect size (Cohen's d statistic) on the BAS,after 24 weeks of NAC treatment,0.44
same,BAS: Within NAC Group Week 8 Mean Overall Change (95% CI),"akathisia, baseline to week 8, LOCF ANCOVA","−0.23 (−0.58, 0.11)"
same,BAS: Within NAC Group Week 24 Mean Overall Change (95% CI),"akathisia, baseline to week 24, LOCF ANCOVA","−0.42 (−0.77, −0.06)*"
same,AIMS: Within NAC Group Week 8 Mean Overall Change (95% CI),[1],"0.08 (−0.48, 0.65)"
same,GAF: Within NAC Group Week 8 Mean Overall Change (95% CI),[1],"2.7 (0.22, 5.3)*"
same,PANSS General: Within NAC Group Week 8 Mean Overall Change (95% CI),[1],"−1.7 (−3.2, −0.26)*"
same,PANSS Negative: Within NAC Group Week 8 Mean Overall Change (95% CI),[1],"−0.18 (−1.2, 0.82)"
same,PANSS Positive: Within NAC Group Week 8 Mean Overall Change (95% CI),[1],"−1.6 (−2.6, −0.64)*"
same,PANSS Total: Within NAC Group Week 8 Mean Overall Change (95% CI),[1],"−3.6 (−6.3, −0.90)*"
same,SAS: Within NAC Group Week 8 Mean Overall Change (95% CI),[1],"−0.05 (−0.30, 0.21)"
same,SOFAS: Within NAC Group Week 8 Mean Overall Change (95% CI),[1],"−0.25 (−3.5, 3.0)"
same,AIMS: Within NAC Group Week 24 Mean Overall Change (95% CI),[2],"−0.44 (−1.03, 0.16)"
same,CGI-S: Within NAC Group Week 24 Mean Overall Change (95% CI),[2],"−0.35 (−0.56, −0.14)*"
same,GAF: Within NAC Group Week 24 Mean Overall Change (95% CI),[2],"4.5 (1.5, 7.5)*"
same,PANSS Positive: Within NAC Group Week 24 Mean Overall Change (95% CI),[2],"−2.3 (−3.49, −1.09)**"
same,SAS: Within NAC Group Week 24 Mean Overall Change (95% CI),[2],"−0.17 (−0.46, 0.13)"
same,SOFAS: Within NAC Group Week 24 Mean Overall Change (95% CI),[2],"−0.69 (−4.99, 3.6)"
same,PANSS General: Within NAC Group Week 24 Mean Overall Change (95% CI),[3],"−4.4 (−6.39, −2.48)^d**"
same,PANSS Negative: Within NAC Group Week 24 Mean Overall Change (95% CI),[3],"−1.6 (−2.71, −0.46)^d"
same,PANSS Total: Within NAC Group Week 24 Mean Overall Change (95% CI),[3],"−8.8 (−12.2, −5.5)^d**"
same,"Adverse events, NAC group compared to placebo group",checklist of 44 somatic items,No reported event was significantly more common
same,"Eye irritation, NAC treatment group compared to placebo",checklist of 44 somatic items,significantly less
same,"SAS or AIMS scores, placebo versus NAC over all visits",over all visits,no significant differences
same,CGI-I: Within NAC Group Week 8 Mean (95% CI),"score at that time point (no baseline score), week 8, NAC 2 g daily plus antipsychotic","3.1 (2.9, 3.4)"
same,CGI-I: Within NAC Group Week 24 Mean (95% CI),"score at that time point (no baseline score), week 24","2.9 (2.6, 3.1)"
same,CGI-I: NAC Mean (95% CI) at post-treatment discontinuation,"score at that time point, washout, week 28","2.9 (2.5, 3.4)"
same,AIMS: NAC Mean Week 24 (SD),[4],2.2 (3.5)
same,BAS: NAC Mean Week 24 (SD),[4],0.42 (0.93)
same,CGI-I: NAC Mean Week 24 (SD),[4],2.9 (0.93)
same,CGI-S: NAC Mean Week 24 (SD),[4],3.5 (1.0)
same,GAF: NAC Mean Week 24 (SD),[4],54.4 (15.4)
same,PANSS General: NAC Mean Week 24 (SD),[4],28.8 (8.5)
